A short description of the data set: Solid state (polymorphic and chemical) stability on storage.

The source of these data is patent US20210387952A1, “SOLID STATE FORMS OF D[…] PROCESS FOR PREPARATION THEREOF” (TEVA PHARMACEUTICALS INTERNATIONAL GMBH, priority 2018, published 2021).

On to `O=C(O)CNC(=O)c1c(O)n(C2CCCCC2)c(=O)n(C2CCCCC2)c1=O` [Form 3, 2-[(1,3-dicyclohexyl-2,4,6-trioxo-1,3-diazinane-5-carbonyl)amino]acetic acid], for which the “polymorphic and chemical stability” value (crystalline solid form) was “polymorphically and chemically stable”. Moreover, the “storage time over which the form is stable” value (stored in closed bottles) is “at least 2 weeks”.
